# Source: patent US6875761B2 (Eisai Co., Ltd., priority 1997, dated 2005)
# Counter-ions that a name gives are not always drawn.
row,Compound,melting point
1,CCCC(=O)c1ccc(-c2cc3ccccc3c(N3CCN(CC)CC3)n2)cc1 (as salt: hydrochloride),110 to 112.5 °C (dec.)
2,"CCN1CCN(c2nc(-c3ccc(C4CCOCC4)nc3)cc3ccccc23)CC1 (as salt: oxalate) [Example 156, 3-[2-(tetrahydropyran-4-yl)pyridin-5-yl]-1-(4-ethylpiperazin-1-yl)isoquinoline oxalate]",158 to 160 °C
3,"CCN1CCN(c2nc(C3CCc4c(OC)cccc43)cc3ccccc23)CC1 (stereo not shown) (as salt: hydrochloride) [Example 113, 3-(4-Methoxyindan-1-yl)-1-(4-ethylpiperazin-1-yl)isoquinoline Hydrochloride]",108 to 110 °C
4,COc1ccc(-c2cc3ccccc3c(NCCc3ccccn3)n2)cc1.Cl,138 to 140 °C
5,"CCCC(O)c1ccc(-c2cc3ccccc3c(N3CCN(CC)CC3)n2)cc1 (stereo not shown) (as salt: oxalate) [Example 21, 1-(4-ethylpiperazin-1-yl)-3-[4-(1-hydroxybutyl)phenyl]isoquinoline oxalate]",198.5 to 199.5 °C
6,"CCN1CCN(c2nc(C(=O)Nc3ccccc3)cc3ccccc23)CC1 (as salt: hydrochloride) [Example 218, 1-(ethylpiperazin-4-yl)-N-phenyl-3-isoquinolinecarboxamide dihydrochloride]",260 °C (dec.)
7,"CCN1CCN(c2nc(C(O)c3ccc(OC)cc3)cc3ccccc23)CC1 (stereo not drawn) (as salt: oxalate) [Example 104, 3-[α-Hydroxy-(4-methoxybenzyl)]-1-(4-ethylpiperazin-1-yl)isoquinoline Oxalate]",95 to 97 °C
8,"CCCNS(=O)(=O)Cc1ccc(-c2cc3ccccc3c(N3CCN(CC)CC3)n2)cc1 (as salt: hydrochloride) [Example 81, 3-(4-Propylaminosulfonylmethylphenyl)-1-(4-Ethylpiperazin-1-Yl)Isoquinoline Hydrochloride]",194 to 197 °C
9,CCN1CCN(c2nc(-c3ccc(OC)cc3)cc3occc23)CC1 (as salt: oxalate),170 to 172 °C (dec.)
10,"CCN1CCN(c2nc(-c3ccc(S(C)(=O)=O)cc3)cc3ccsc23)CC1 (as salt: hydrochloride) [Example 445, 7-(4-ethylpiperazin-1-yl)-5-(4-methanesulfonylphenyl)thieno)[2,3-c]pyridine dihydrochloride]",222.5 to 225 °C (dec.)
11,"CCN1CCN(c2nc(/C=C(\C)c3cccc(N4CCOCC4)c3)cc3ccccc23)CC1 (as salt: oxalate) [Example 207, 3-{(E)-2-Methyl-2-[3-(4-Morpholinyl)Phenyl]Ethenyl}-1-(4-Ethylpiperazin-1-Yl)Isoquinoline Oxalate]",190 to 192 °C
12,CCN1CCN(c2nc(-c3cccc(OC)c3OC)cc3ccccc23)CC1 (as salt: hydrochloride),122 to 123 °C
13,"CCN1CCN(c2nc(-c3ccc(OC(C)COC)nc3)cc3ccsc23)CC1 (stereo not shown) (as salt: hydrochloride) [Example 267, 5-[2-(2-methoxyethoxy-2-methyl)pyridin-5-yl]-7-(4-ethylpiperazin-1-yl)thieno[2,3-c]pyridine Hydrochloride]",112 to 114 °C
14,"CCN1CCN(c2nc(C#Cc3ccc(OCCO)cc3)cc3ccccc23)CC1 (as salt: hydrochloride) [Example 183, 1-(1-Ethylpiperazin-4-Yl]-3-[4-(2-Hydroxyethoxy)Phenylethynyl]Isoquinoline Dihydrochloride]",205 to 208 °C
15,CCN1CCN(c2nc(-c3ccc(OCCO)cc3)cc3ccc(F)cc23)CC1 (as salt: hydrochloride),225 to 229 °C
16,"CCN1CCN(c2nc(-c3ccc(OCCO)cc3)cc3cccc(F)c23)CC1 (as salt: hydrochloride) [Example 234, 1-(1-ethylpiperazin-4-yl)-8-fluoro-3-[4-(2-hydroxyethoxy)phenyl]isoquinoline dihydrochloride]",215 to 219 °C
17,"CCN1CCN(c2nc(-c3ccc(CS(C)(=O)=O)cc3)cc3ccccc23)CC1 (as salt: hydrochloride) [Example 90, 3-(4-Methylsulfonylmethylphenyl)-1-(4-ethylpiperazin-1-yl)isoquinoline Hydrochloride]",260 to 262 °C
18,"CCN1CCN(c2nc(-c3ccc4c(c3)CC(CO)CO4)cc3ccccc23)CC1 (stereo not shown) (as salt: hydrochloride) [Example 122, 3-(3-Hydroxymethylchroman-6-yl)-1-(4-Ethylpiperazin-1-yl)Isoquinoline Hydrochloride]",168 to 172 °C
19,"CCN1CCN(c2nc(-c3ccc(C(CC(C)O)OC)cc3)cc3ccccc23)CC1 (stereo not shown) (as salt: hydrochloride) [Example 26, 3-[4-(3-hydroxy-1-methoxybutyl)phenyl]-1-(4-ethylpiperazin-1-yl)isoquinoline]",171 to 174 °C
20,"CCN1CCN(c2nc(-c3ccc(CCC(C)(C)O)c(F)c3)cc3ccccc23)CC1 (as salt: hydrochloride) [Example 416, 1-(4-ethylpiperazin-1-yl)-3-[4-(3-hydroxy-3-methylbutyl)-3-fluorophenyl]isoquinoline]",206 to 207 °C
21,"CCN1CCN(c2nc(-c3ccc4c(c3)CC(CO)C4)cc3ccccc23)CC1 (stereo not shown) (as salt: hydrochloride) [Example 393, 1-(4-Ethylpiperazin-1-yl)-3-(2-Hydroxymethylindan-5-yl)Isoquinoline Dihydrochloride]",136.5 to 138 °C

# Further lines, results first:
row,melting point,Compound
1,134 to 136 °C,"CCN1CCN(c2nc(-c3ccc(CCO)cc3)cc3ccccc23)CC1 (as salt: hydrochloride) [Example 351, 1-(4-ethylpiperazin-1-yl)-3-[4-(2-hydroxyethyl)phenyl]isoquinoline dihydrochloride]"
2,126 to 130 °C,"CCN1CCN(c2nc(-c3ccc(CCCO)cc3)cc3ccoc23)CC1 (as salt: hydrochloride) [Example 299, 7-(1-ethylpiperazin-4-yl)-5-[4-(3-hydroxypropyl)phenyl]furo[2,3-c]pyridine dihydrochloride]"
3,124.5 to 125.5 °C,"CCN1CCN(c2nc(-c3ccc(C#CC(C)(C)O)cc3)cc3sccc23)CC1 (as salt: oxalate) [Example 466, 4-(4-ethylpiperazin-1-yl)-6-[4-(3-hydroxy-3-methyl-1-butynyl)phenyl]thieno[3,2-c]pyridine oxalate]"
4,105 to 107 °C,"OCCOc1ccc(-c2cc3ccsc3c(N3CCN(CCO)CC3)n2)cc1 (as salt: oxalate) [Example 275, 5-[4-(2-hydroxyethoxy)phenyl]-7-[4-(2-hydroxyethyl)piperazin-1-yl]thieno[3,2-c]pyridine oxalate]"
5,114 to 116 °C,"CCN1CCN(c2nc(-c3ccc(CCCO)c(Cl)c3)cc3ccsc23)CC1 (as salt: oxalate) [Example 257, 5-[4-(3-hydroxypropyl)-3-chlorophenyl]-7-(4-ethylpiperazin-1-yl)thieno[2,3-c]pyridine Oxalate]"
6,215 to 218 °C (dec.),"CCN1CCN(c2nc(-c3ccc(SC)cc3)cc3ccccc23)CC1 (as salt: hydrochloride) [Example 341, 1-(4-ethylpiperazin-1-yl)-3-(4-methylthiophenyl)isoquinoline dihdyrochloride]"
7,138 to 140 °C,"OCCOc1ccc(-c2cc3sccc3c(N3CCN(CCF)CC3)n2)cc1 (as salt: hydrochloride) [Example 295, 4-[4-(2-fluoroethyl)piperazin-1-yl]-6-[4-(2-hydroxyethoxy)phenyl]thieno[3,2-c]pyridine]"
8,155 to 156 °C,"CCC(C)NS(=O)(=O)c1ccc(-c2cc3ccccc3c(N3CCN(CC)CC3)n2)cc1 (stereo not shown) (as salt: hydrochloride) [Example 360, 1-(4-ethylpiperazin-1-yl)-3-{4-[N-(1-methylpropyl)sulfamoyl]phenyl}isoquinoline dihydrochloride]"
9,174 to 175 °C,"CCN1CCN(c2nc(C(O)c3cccnc3)cc3ccccc23)CC1 (stereo not shown) (as salt: oxalate) [Example 413, 1-(4-ethylpiperazin-1-yl)-3-[(3-pyridyl)hydroxymethyl]isoquinoline]"
10,184 to 186 °C (dec.),"CCN1CCN(c2nc(-c3ccc(CC(C)(C)O)cc3)cc3ccccc23)CC1 (as salt: oxalate) [Example 377, 1-(4-Ethylpiperazin-1-yl)-3-[4-(2-Hydroxy-2-Methylpropyl)Phenyl]Isoquinoline Oxalate]"
11,122 to 124 °C,"CCN1CCN(c2nc(-c3ccc(CCC(C)O)cc3)cc3sccc23)CC1 (stereo not shown) (as salt: hydrochloride) [Example 285, 4-(1-ethylpiperazin-4-yl)-6-[4-(3-hydroxybutyl)phenyl]thieno[3,2-c]pyridine hydrochloride]"
12,230 to 232 °C (dec.),"CCN1CCN(c2nc(-c3ccc(S(=O)(=O)CC)cc3)cc3ccsc23)CC1 (as salt: hydrochloride) [Example 450, 7-(4-ethylpiperazin-1-yl)-5-(4-ethanesulfonylphenyl)thieno[2,3-c]pyridine dihydrochloride]"
13,132 to 134 °C,"CCN1CCN(c2nc(-c3ccc(CCCO)c(C#N)c3)cc3ccsc23)CC1 (as salt: oxalate) [Example 262, 5-[4-(3-hydroxypropyl)-3-cyanophenyl]-7-(4-ethylpiperazin-1-yl)thieno[2,3-c]pyridine Oxalate]"
14,124 to 125 °C (dec.),"CCCNC(=O)c1ccc(-c2cc3ccccc3c(N3CCN(CC)CC3)n2)cc1F (as salt: hydrochloride) [Example 384, 1-(4-Ethylpiperazin-1-yl)-3-[4-(N-Propylcarbamoyl)-3-Fluorophenyl]Isoquinoline Dihydrochloride]"
15,130 to 131 °C,"CCC(O)c1ccc(-c2cc3sccc3c(N3CCN(CC)CC3)n2)cc1 (stereo not shown) (as salt: oxalate) [Example 282, 4-(4-ethylpiperazin-1-yl)-6-[4-(1-hydroxypropyl)phenyl]thieno-[3,2-c]pyridine oxalate]"
16,143 to 145 °C,"CCN1CCN(c2nc(/C=C/c3ccc(OCCO)cc3)cc3ccsc23)CC1 (as salt: hydrochloride) [Example 431, 7-(4-ethylpiperazin-1-yl)-5-[4-(2-hydroxyethoxy)styryl]thieno[2,3-c]pyridine hydrochloride]"
